41 molecules from US7803795B2, “Phthalazine derivatives as parp inhibitors” (Janssen Pharmaceutica N.V., priority 2004, dated 2010) can be followed below.

As a reminder, the IC50 is the concentration at which inhibition is half-maximal.

The target in the assay is T1, TANK-2 enzyme (Homo sapiens, UniProt Q9H2K2).
T1 construct: His tag (inferred from capture on a Ni-coated plate); made in house
T1 sequence (Q9H2K2 1-1166): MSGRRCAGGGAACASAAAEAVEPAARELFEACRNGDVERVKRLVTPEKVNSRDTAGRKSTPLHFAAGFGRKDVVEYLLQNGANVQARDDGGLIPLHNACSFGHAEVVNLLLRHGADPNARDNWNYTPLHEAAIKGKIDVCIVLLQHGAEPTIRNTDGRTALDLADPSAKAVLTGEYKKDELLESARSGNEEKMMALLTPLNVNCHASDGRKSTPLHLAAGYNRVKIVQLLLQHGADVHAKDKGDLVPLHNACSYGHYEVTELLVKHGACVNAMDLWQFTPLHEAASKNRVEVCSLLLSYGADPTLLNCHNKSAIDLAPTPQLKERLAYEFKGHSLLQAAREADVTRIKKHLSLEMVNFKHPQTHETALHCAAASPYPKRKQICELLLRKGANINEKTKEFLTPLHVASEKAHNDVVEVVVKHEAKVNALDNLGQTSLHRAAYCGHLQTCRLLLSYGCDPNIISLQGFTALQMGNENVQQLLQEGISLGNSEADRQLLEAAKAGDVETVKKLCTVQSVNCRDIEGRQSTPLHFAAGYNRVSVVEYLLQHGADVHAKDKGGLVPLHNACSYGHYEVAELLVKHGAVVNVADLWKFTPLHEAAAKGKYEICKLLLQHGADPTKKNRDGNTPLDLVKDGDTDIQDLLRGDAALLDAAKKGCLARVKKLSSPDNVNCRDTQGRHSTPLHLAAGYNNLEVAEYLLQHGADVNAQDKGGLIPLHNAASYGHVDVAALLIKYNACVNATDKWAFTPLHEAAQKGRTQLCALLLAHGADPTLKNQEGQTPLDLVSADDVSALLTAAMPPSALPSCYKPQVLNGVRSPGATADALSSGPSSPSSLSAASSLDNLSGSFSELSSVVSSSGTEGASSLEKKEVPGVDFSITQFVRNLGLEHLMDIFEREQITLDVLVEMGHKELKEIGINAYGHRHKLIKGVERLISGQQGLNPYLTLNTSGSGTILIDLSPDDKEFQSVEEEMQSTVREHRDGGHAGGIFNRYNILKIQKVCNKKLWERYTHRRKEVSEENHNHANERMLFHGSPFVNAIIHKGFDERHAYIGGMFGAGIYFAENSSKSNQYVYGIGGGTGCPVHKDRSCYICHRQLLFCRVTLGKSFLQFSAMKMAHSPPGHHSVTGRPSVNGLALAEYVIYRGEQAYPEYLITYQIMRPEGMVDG
The assay can be described thus: in vitro Scintillation Proximity Assay (SPA) for TANK-2 inhibitory activity. The assay is classed as biochemical. The procedure: In Vitro Scintillation Proximity Assay (SPA) for Tank-2 Inhibitory Activity
Compounds of the present invention were tested in an in vitro assay based on SPA technology with Ni Flash plates (96 or 384 well).
In principle, the assay relies upon SPA technology for the detection of auto-poly(ADP-ribosylation of TANK-2 protein using [^3H]-nicotinamide adenine dinucleotide ([^3H]-NAD^+) as ADP-ribosyl donor.
A stock solution of [^3H]-NAD^+/NAD was made by adding 64.6 μl of [^3H]-NAD^+ (0.1 mCi/ml, supplier: Perkin Elmer) and 46.7 μl NAD-stock (10.7 mM, stored at −20° C., supplier Roche) to 1888.7 μl assay buffer (60 mM Tris/HCl, pH 7.4; 0.9 mM DTT; 6 mM MgCl2). The TANK-2 enzyme was produced as described in EP1238063.60 μl of assay buffer, together with 1 μl of compound in DMSO, 20 μl of [^3H]-NAD^+/NAD and 20 μl of TANK-2 enzyme (final concentration 6 μg/ml) was added per well into a 96-well Ni-coated flash plate (Perkin Elmer). After incubation of the mixture for 120 min. at room temperature, the reaction was terminated by adding 60 μl of stopsolution (42.6 mg NAD in 6 ml H2O). The plates were covered with a plate sealer and placed in a TopCountNXT™ (Packard) for scintillation counting. Values were expressed as counts per minute (cpm). For each experiment, controls (containing TANK-2 enzyme and DMSO without compound), a blank incubation (containing DMSO but no TANK-2 enzyme or compound) and samples (containing TANK-2 enzyme and compound dissolved in DMSO) were run in parallel. All compounds tested were dissolved and eventually further diluted in DMSO. […] In each test, the blank value was subtracted from both the control and the sample values. The control sample represented maximal TANK-2 enzyme activity. For each sample, the amount of cpm was expressed as a percentage of the mean cpm value of the controls. When appropriate, IC50-values (concentration of the drug, needed to reduce the TANK-2 enzyme activity to 50% of the control) were computed using linear interpolation between the experimental points just above and below the 50% level. Herein the effects of test compounds are expressed as pIC50 (the negative log value of the IC50-value). As reference compounds, 3-aminobenzamide and 4-amino-1,8-naphthalimide were included to validate the SPA assay. Herein the assay was described using 96-well plates. In the assay using 384-well plates the same final concentrations were used and volumes were adapted.
`O=c1[nH]nc(N[C@@H]2C[C@H]3CC[C@@H](C2)N3CCCC(c2ccc(F)cc2)c2ccc(F)cc2)c2ccccc12` [Compound 3] showed an IC50 of 5.05 µM.

In the case of `Cc1nc2sccn2c(=O)c1CCN1CCN(c2nnc(C)c3ccccc23)CC1` [Compound 73], the IC50 is greater than 10 µM.

Regarding `O=c1[nH]nc(NC2CCN(CCCCOc3ccccc3)CC2)c2ccccc12` [Compound 46], the IC50 is greater than 10 µM.

Take `CN(c1nc2ccccc2s1)C1CCN(c2nnc(Cl)c3ccccc23)CC1` [Compound 61]: the IC50 is greater than 10 µM.

On to `CCOC(=O)N1CCCC(Nc2n[nH]c(=O)c3ccccc23)CC1` (centres unmarked) [Compound 50], for which the 50% inhibitory concentration (IC50) is greater than 10 µM.

The molecule `O=c1[nH]nc(NCC2CCCN(CCCC(c3ccc(F)cc3)c3ccc(F)cc3)C2)c2ccccc12` (centres unmarked) [Compound 49] had an IC50 of 1.56 µM.

As to `O=c1[nH]nc(C2CCN(CCCCOc3ccccc3)CC2)c2ccccc12` [Compound 68], the IC50 is greater than 10 µM.

On to `O=c1[nH]nc(C2CCN(c3ncccn3)CC2)c2ccccc12` [Compound 69], for which inhibition was half-maximal at 5.52 µM (IC50).

In the case of `Cc1nc2ccccn2c(=O)c1CCN1CCN(c2nnc(C)c3ccccc23)CC1` [Compound 72], the IC50 is greater than 10 µM.

The molecule `O=c1[nH]nc(NC2CCCN(Cc3ccccc3)C2)c2ccccc12` (centres unmarked) [Compound 53] displayed an IC50 greater than 10 µM.

`O=c1[nH]nc(C2CCN(C/C=C/c3ccccc3)CC2)c2ccccc12` [Compound 66]: 4.33 µM corresponded to half-maximal inhibition (IC50).

On to `CCOC(=O)N1CCC(Nc2n[nH]c(=O)c3ccccc23)C1` (centres unmarked) [Compound 48], for which the IC50 is greater than 10 µM.

Turning to `O=c1[nH]nc(C2CCN(CCCC(c3ccc(F)cc3)c3ccc(F)cc3)CC2)c2ccccc12` [Compound 67], the IC50 is greater than 10 µM.

`Clc1nnc(NC2CCN(CCCCOc3ccccc3)CC2)c2ccccc12` [Compound 59] gave an IC50 greater than 10 µM.

Molecule `O=c1[nH]nc(C2CCNCC2)c2ccccc12` [Compound 4] returned an IC50 greater than 10 µM.

In turn, `Fc1ccc(C(CCCN2CCN(c3nnc(Cl)c4ccccc34)CC2)c2ccc(F)cc2)cc1` [Compound 57] had an IC50 of 5.08 µM.

Consider `CCOC(=O)N1CCN(c2nnc(Cl)c3ccccc23)CC1` [Compound 58], for which the IC50 was 9.02 µM.

In turn, `CCOC(=O)N1CCC(Nc2n[nH]c(=O)c3ccccc23)CC1` [Compound 56] yielded a 50% inhibitory concentration (IC50) greater than 10 µM.

`CCOC(=O)N1[C@@H]2CC[C@H]1C[C@H](Nc1n[nH]c(=O)c3ccccc13)C2` [Compound 11] gave an IC50 of 2.13 µM.

As to `O=c1[nH]nc(NC2CCCN(CCCC(c3ccc(F)cc3)c3ccc(F)cc3)CC2)c2ccccc12` (centres unmarked) [Compound 30], the 50% inhibitory concentration (IC50) was 4 µM.

Consider `O=c1[nH]nc(C2CCN(Cc3ccccc3)CC2)c2ccccc12` [Compound 1], for which the IC50 is 8.43 µM.

In turn, `O=c1[nH]nc(C2CCN(CCCOc3ccc(F)cc3)CC2)c2ccccc12` [Compound 13] registered an IC50 greater than 10 µM.

`Cc1nnc(N2CCN(CCn3c(=O)[nH]c4ccccc4c3=O)CC2)c2ccccc12` [Compound 70] gave an IC50 of 3.73 µM.

Take `O=c1[nH]nc(NCC2CCCN(Cc3ccccc3)C2)c2ccccc12` (centres unmarked) [Compound 44]: the IC50 is greater than 10 µM.

`Cc1nc2scc(C)n2c(=O)c1CCN1CCN(c2nnc(C)c3ccccc23)CC1` [Compound 74] showed an IC50 of 4.69 µM.

Regarding `O=c1[nH]nc(NC2CCN(C[C@@H](O)[C@@H]3CCc4ccccc4O3)CC2)c2ccccc12` (relative stereo) [Compound 27], the IC50 was greater than 10 µM.

Molecule `O=c1[nH]nc(NC2CCN(C/C=C/c3ccccc3)CC2)c2ccccc12` [Compound 65] came in with a concentration for half-maximal inhibition (IC50) greater than 10 µM.

For the molecule `CCOC(=O)N1[C@@H]2CC[C@H]1C[C@H](Nc1nnc(Cl)c3ccccc13)C2` [Compound 24], the IC50 is 4.37 µM.

`COc1ccc(CCN2CCC(Nc3n[nH]c(=O)c4ccccc34)CC2)cc1` [Compound 63] displayed an IC50 greater than 10 µM.

In turn, `Cc1nc2n(c(=O)c1CCN1CCN(c3nnc(C)c4ccccc34)CC1)CCCS2` [Compound 76] gave an IC50 greater than 10 µM.

The molecule `O=c1[nH]nc(N2CCC(c3cccc(C(F)(F)F)c3)C2)c2ccccc12` (centres unmarked) [Compound 55] gave a concentration for half-maximal inhibition (IC50) of 1.5 µM.

`O=c1[nH]nc(NC2CCCNCC2)c2ccccc12` (centres unmarked) [Compound 34]: the IC50 is greater than 10 µM.

`Cc1nc2n(c(=O)c1CCN1CCN(c3nnc(C)c4ccccc34)CC1)CCS2` [Compound 75] yielded an IC50 greater than 10 µM.

Consider `Clc1nnc(NC2CCN(Cc3ccccc3)C2)c2ccccc12` (centres unmarked) [Compound 12], for which the IC50 is 9.27 µM.

With `O=c1[nH]nc(N[C@@H]2C[C@H]3CC[C@@H](C2)N3)c2ccccc12` [Compound 15], the concentration for half-maximal inhibition (IC50) was greater than 10 µM.

As to `O=c1[nH]nc(NC2CCN(Cc3ccccc3)C2)c2ccccc12` (centres unmarked) [Compound 51], the IC50 is greater than 10 µM.

The molecule `Cc1nnc(N2CCN(CCn3c(=O)[nH]c4ccccc43)CC2)c2ccccc12` [Compound 71] registered an IC50 greater than 10 µM.

`Cc1nnc(N2CCN(CCCC(c3ccc(F)cc3)c3ccc(F)cc3)CC2)c2ccccc12` [Compound 29] showed an IC50 greater than 10 µM.

As for `Clc1nnc(N2CCN(c3ccccc3)CC2)c2ccccc12` [Compound 77], the IC50 was 8.83 µM.

`CCOC(=O)N1CCC(c2n[nH]c(=O)c3ccccc23)CC1` [Compound 25] gave an IC50 greater than 10 µM.

As to `O=c1[nH]nc(N2CCN(CCCC(c3ccc(F)cc3)c3ccc(F)cc3)CC2)c2ccccc12` [Compound 52], the IC50 was 6.55 µM.
